Assay results taken from patent publication US20240408010A1, “A Nano Emulsified Phyto-Drug For Transdermal Treatment of Diabetes” (University of South Africa, priority 2021, published 2024).

What was measured:
[1] = system: albino Wistar rats; assay: Streptozotocin induction of hyperglycemic/diabetic state in albino Wistar rats; format: in vivo
Experimental: Table 1 presents the results of how the metabolism of normal albino rats progresses into a hyperglycemic/diabetic state as a multiple low-dosage of streptozotocin is administered for diabetes induction.

[2] = Solubility of diosgenin in oil phase; format: physicochemical; conditions: dissolved in combination with bottle gourd seed

SMILES | Glucose Concentration ([1]; First Cycle, Day 15) [mg/dL] | Glycated Hemoglobin GHb ([1]; First Cycle, Day 15) | Glycated Hemoglobin HbA1c ([1]; First Cycle, Day 15) [%] | Glycated Hemoglobin MBG ([1]; First Cycle, Day 15) | Glucose Concentration ([1]; First Cycle, Dose 1 of multiple low-dosage streptozotocin) [mg/dL] | Glucose Concentration ([1]; First Cycle, Dose 2) [mg/dL] | Glucose Concentration ([1]; First Cycle, Dose 3) [mg/dL] | Glucose Concentration ([1]; Second cycle, Dose 4) [mg/dL] | Glucose Concentration ([1]; Second cycle, Dose 5) [mg/dL] | Glucose Concentration ([1]; Second cycle, Dose 6) [mg/dL] | Glycated Hemoglobin GHb ([1]; Second cycle, Dose 6) | Glycated Hemoglobin HbA1c ([1]; Second cycle, Dose 6) [%] | Glycated Hemoglobin MBG ([1]; Second cycle, Dose 6) | solubility of diosgenin [2]
CN(N=O)C(=O)N[C@H]1C(O)O[C@H](CO)[C@@H](O)[C@@H]1O (mixture of isomers) [Streptozotocin, streptozotocin] | 532.17 ± 22.15 | 12.37 ± 0.81 | 9.50 ± 0.54 | 225.39 ± 15.55 | 171.56 ± 22.70 | 318.31 ± 19.86 | 439.31 ± 41.00 | 425.60 ± 31.10 | 459.87 ± 33.56 | 451.89 ± 44.27 | 12.40 ± 0.28 | 9.50 ± 0.19 | 226.03 ± 5.53 | 
C[C@@H]1CC[C@@]2(OC1)O[C@H]1C[C@H]3[C@@H]4CC=C5C[C@@H](O)CC[C@]5(C)[C@H]4CC[C@]3(C)[C@H]1[C@@H]2C [diosgenin] |  |  |  |  |  |  |  |  |  |  |  |  |  | enhanced
